Laboratory results: ChEMBL document CHEMBL3745645, “Synthesis, in vitro antitumor activity, dihydrofolate reductase inhibition, DNA intercalation and structure-activity relationship studies of 1,3,5-triazine analogues” (Bioorg Med Chem Lett, 2016)
The source made the active and inactive calls. The rule behind the calls is not given here.

How the values were obtained:
[1] = tested on: T47D; test: Cytotoxicity against human T47D cells at 10 uM after 48 hrs by SRB assay; format: functional; conditions: read-out: GI
[2] = Cytotoxicity against human SNB19 cells at 10 uM after 48 hrs by SRB assay; format: functional; conditions: SNB-19, 48 h, read-out: GI
[3] = Cytotoxicity against human RPMI8226 cells after 48 hrs by SRB assay; format: functional; conditions: RPMI-8226, 48 h, read-out: LC50 (the source's name)
[4] = tested on: SK-MEL-28; test: Cytotoxicity against human SK-MEL-28 cells at 10 uM after 48 hrs by SRB assay; format: functional
[5] = target: T1, Dihydrofolate reductase (Homo sapiens, UniProt P00374); test: Inhibition of human recombinant DHFR expressed in Escherichia coli by spectrophotometric analysis
T1 sequence (P00374 whole entry): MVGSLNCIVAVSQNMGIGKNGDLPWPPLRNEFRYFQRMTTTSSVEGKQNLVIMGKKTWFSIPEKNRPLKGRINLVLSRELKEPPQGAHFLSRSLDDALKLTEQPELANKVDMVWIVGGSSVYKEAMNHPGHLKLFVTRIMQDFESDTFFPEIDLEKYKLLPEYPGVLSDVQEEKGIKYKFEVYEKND

[6] = tested on: A549; test: Cytotoxicity against human A549 cells after 48 hrs by SRB assay; format: functional; conditions: A549, 48 h, pooled result: one value given for 8 cell lines, strains, targets or settings
[7] = Cytotoxicity against human OVCAR5 cells at 10 uM after 48 hrs by SRB assay; format: functional; conditions: OVCAR-5, 48 h, read-out: GI
[8] = Cytotoxicity against human HOP62 cells at 10 uM after 48 hrs by SRB assay; format: functional; conditions: HOP-62, 48 h, read-out: GI
[9] = Cytotoxicity against human COLO205 cells after 48 hrs by SRB assay; format: functional; conditions: COLO 205, 48 h, pooled result: one value given for 7 cell lines, strains, targets or settings
[10] = Cytotoxicity against human Caki1 cells at 10 uM after 48 hrs by SRB assay; format: functional; conditions: CAKI-1, 48 h, read-out: GI
[11] = tested on: NCI-H322M; test: Cytotoxicity against human NCI-H322M cells at 10 uM after 48 hrs by SRB assay; format: functional; conditions: read-out: GI
[12] = tested on: SN12C; test: Cytotoxicity against human SN12C cells at 10 uM after 48 hrs by SRB assay; format: functional; conditions: read-out: GI
[13] = Cytotoxicity against human LOXIMVI cells at 10 uM after 48 hrs by SRB assay; format: functional; conditions: LOX IMVI, read-out: GI
[14] = Cytotoxicity against human OVCAR8 cells at 10 uM after 48 hrs by SRB assay; format: functional; conditions: OVCAR-8, 48 h, read-out: GI
[15] = tested on: A498; test: Cytotoxicity against human A498 cells at 10 uM after 48 hrs by SRB assay; format: functional
[16] = Cytotoxicity against human SF539 cells at 10 uM after 48 hrs by SRB assay; format: functional; conditions: SF-539, 48 h, read-out: GI
[17] = tested on: 786-0; test: Cytotoxicity against human 786-0 cells at 10 uM after 48 hrs by SRB assay; format: functional; conditions: 786-0, 48 h, read-out: GI
[18] = tested on: MDA-MB-435; test: Cytotoxicity against human MDA-MB-435 cells at 10 uM after 48 hrs by SRB assay; format: functional; conditions: MDA-MB-435, 48 h, read-out: GI
[19] = Cytotoxicity against human MOLT4 cells at 10 uM after 48 hrs by SRB assay; format: functional; conditions: MOLT-4, 48 h, read-out: GI
[20] = Cytotoxicity against human LOXIMVI cells after 48 hrs by SRB assay; format: functional; conditions: LOX IMVI, pooled result: one value given for 9 cell lines, strains, targets or settings
[21] = tested on: MDA-MB-468; test: Cytotoxicity against human MDA-MB-468 cells at 10 uM after 48 hrs by SRB assay; format: functional; conditions: MDA-MB-468, 48 h, read-out: GI
[22] = Cytotoxicity against human SF268 cells after 48 hrs by SRB assay; format: functional; conditions: SF-268, 48 h, pooled result: one value given for 6 cell lines, strains, targets or settings
[23] = tested on: Calf thymus DNA; test: Binding affinity to calf thymus DNA by UV-vis spectrometric analysis; format: nucleic-acid assay; conditions: Bos taurus
[24] = Cytotoxicity against human RXF393 cells at 10 uM after 48 hrs by SRB assay; format: functional; conditions: RXF 393, 48 h, read-out: GI
[25] = tested on: Calf thymus DNA; test: Binding affinity to calf thymus DNA by fluorescence spectrophotometric analysis; format: nucleic-acid assay; conditions: Bos taurus
[26] = tested on: 786-0; test: Cytotoxicity against human 786-0 cells after 48 hrs by SRB assay; format: functional; conditions: 786-0, 48 h, pooled result: one value given for 8 cell lines, strains, targets or settings
[27] = Cytotoxicity against human SKOV3 cells at 10 uM after 48 hrs by SRB assay; format: functional; conditions: SK-OV-3, 48 h, read-out: GI
[28] = Cytotoxicity against human SW620 cells at 10 uM after 48 hrs by SRB assay; format: functional; conditions: SW-620, 48 h, read-out: GI
[29] = tested on: U-251; test: Cytotoxicity against human U251 cells at 10 uM after 48 hrs by SRB assay; format: functional; conditions: U-251, 48 h, read-out: GI
[30] = Cytotoxicity against human PC3 cells after 48 hrs by SRB assay; format: functional; conditions: PC-3, 48 h
[31] = tested on: K562; test: Cytotoxicity against human K562 cells after 48 hrs by SRB assay; format: functional; conditions: K562, 48 h
[32] = Cytotoxicity against human Hs 578T cells at 10 uM after 48 hrs by SRB assay; format: functional; conditions: read-out: GI
[33] = tested on: HT-29; test: Cytotoxicity against human HT-29 cells at 10 uM after 48 hrs by SRB assay; format: functional
[34] = Cytotoxicity against human HCT116 cells at 10 uM after 48 hrs by SRB assay; format: functional; conditions: HCT-116, 48 h, read-out: GI
[35] = tested on: M14; test: Cytotoxicity against human M14 cells at 10 uM after 48 hrs by SRB assay; format: functional
[36] = tested on: ACHN; test: Cytotoxicity against human ACHN cells at 10 uM after 48 hrs by SRB assay; format: functional; conditions: read-out: GI
[37] = Cytotoxicity against human SF268 cells at 10 uM after 48 hrs by SRB assay; format: functional; conditions: SF-268, 48 h, read-out: GI
[38] = Cytotoxicity against human DU145 cells after 48 hrs by SRB assay; format: functional; conditions: DU-145, 48 h, read-out: LC50 (the source's name)
[39] = tested on: SR; test: Cytotoxicity against human SR cells at 10 uM after 48 hrs by SRB assay; format: functional; conditions: read-out: GI
[40] = Cytotoxicity against human UO31 cells at 10 uM after 48 hrs by SRB assay; format: functional; conditions: UO-31, 48 h, read-out: GI
[41] = Cytotoxicity against human COLO205 cells at 10 uM after 48 hrs by SRB assay; format: functional; conditions: COLO 205, 48 h, read-out: GI
[42] = pooled result: one value given for 2 cell lines, strains, targets or settings

Question: Which results are given for `Cc1nc2ccc(Nc3nc(NCCN4CCOCC4)nc(Nc4ccc(F)cc4)n3)cc2n1Cc1ccccc1`?
Answer: inhibition of growth at 10 µM [1]: 47%; inhibition of growth at 10 µM [2]: 21.3%; CC50 [3]: 55 µM; growth inhibition (GI) [4]: Active; IC50 [5]: 0.002 µM; GI50 [6]: 3.21 µM; LC50 [6]: 38.5 µM; TGI [6]: 18.5 µM; inhibition of growth at 10 µM [7]: 15.9%; inhibition of growth at 10 µM [8]: 52.2%; GI50 [9]: 2.6 µM; LC50 [9]: 24 µM; TGI [9]: 8.51 µM; inhibition of growth at 10 µM [10]: 44.4%; inhibition of growth at 10 µM [11]: 35.9%; inhibition of growth at 10 µM [12]: 38.1%; inhibition of growth at 10 µM [13]: 94.3%; inhibition of growth at 10 µM [14]: 49.9%; growth inhibition (GI) [15]: Active; inhibition of growth at 10 µM [16]: 70.2%; inhibition of growth at 10 µM [17]: 95.8%; inhibition of growth at 10 µM [18]: 47.8%; inhibition of growth at 10 µM [19]: 77.3%; GI50 [20]: 1.91 µM; LC50 [20]: 24.2 µM; TGI [20]: 4.08 µM; inhibition of growth at 10 µM [21]: 86%; GI50 [22]: 2.72 µM; LC50 (concentration killing 50% of cells) [22]: 15.3 µM; TGI [22]: 12 µM; Ka [23]: 7.19 ×10⁴ /M; inhibition of growth at 10 µM [24]: 88%; Ka [25]: 8.58 ×10⁴ /M; GI50 [26]: 3.03 µM; LC50 (concentration killing 50% of cells) [26]: 14.6 µM; TGI [26]: 19.3 µM; inhibition of growth at 10 µM [27]: 21%; inhibition of growth at 10 µM [28]: 57.6%; inhibition of growth at 10 µM [29]: 71.3%; LC50 [30]: 62.5 µM; GI50 [30, 42]: 4.41 µM; TGI [30, 42]: 43.9 µM; LC50 [31]: 55 µM; inhibition of growth at 10 µM [32]: 59.4%; growth inhibition (GI) [33]: Active; inhibition of growth at 10 µM [34]: 72.1%; growth inhibition (GI) [35]: Active; inhibition of growth at 10 µM [36]: 47.8%; inhibition of growth at 10 µM [37]: 37.2%; CC50 [38]: 62.5 µM; inhibition of growth at 10 µM [39]: 99.8%; inhibition of growth at 10 µM [40]: 62.7%; inhibition of growth at 10 µM [41]: 98.8%
